In patent publication US9932333B2, “Benzothiazole compound and medicine containing same” (JAPAN SCIENCE AND TECHNOLOGY AGENCY, priority 2014, dated 2018):

Experiments:
[1] = Fluorescence in glycerol/water mixed solvent; assay type: physicochemical; settings: increasing glycerol concentration
[2] = target: T1, Aβ1-42 (Homo sapiens, UniProt P05067); test: Oxidation reaction of Aβ1-42 under LED irradiation (Example 3); assay type: biochemical
Experimental: (§1) Then, the reaction was monitored with a mass spectrometer (MALDI-TOF MS) or LC/MS (ESI-Q).
(§2) The amino acid analysis of oxidized Aβ1-42 and oxidized amylin (carried out by Peptide Institute, Inc.) was conducted. The oxidized Aβ1-42 and the oxidized amylin were enzymatically digested with endopeptidase Lys-C and chymotrypsin, respectively, and the obtained digests were analyzed with a mass spectrometer (MALD-TOF MS) and LC/MS/MS (ESI-Q-TOF).

[3] = target: T2, methionine enkephalin (Homo sapiens, UniProt P01210); test: Selectivity of oxygenation reaction, methionine enkephalin (Example 4); assay type: biochemical; set-up: unit not given here; settings: compound (1a) 20 mmol %, light 1 hour, 37° C.
Description: as §1

[4] = target: T1, Aβ1-42; test: Fluorescence spectra in the presence or absence of Aβ1-42; assay type: binding; settings: Aβ1-42 20 μM, 37° C., 3 hours
[5] = Oxidation reaction of benzoyl methionine in glycerol/water; settings: aqueous solution containing glycerol, light irradiation
Description: (§3) Then, the reaction was monitored with LC/MS (ESI-Q).

[6] = target: Aβ coexisting with angiotensin IV and methionine enkephalin (Homo sapiens, UniProt P05067); test: Oxygenation with Aβ coexisting with angiotensin IV and methionine enkephalin; assay type: biochemical
Description: as §1

[7] = target: Aβ1-42 oligomers (Homo sapiens, UniProt P05067); test: Oxygenation of Aβ1-42 oligomer (Example 6); assay type: biochemical; settings: 4 μM; light 10 minutes, room temperature
Experimental: (3) Compound (1a) (4 μM) was added to each of solutions containing two types of Aβ1-42 oligomers (0.5 μM) prepared by the incubation of Aβ1-42 (20 μM) in a phosphate buffer solution (10 mM, pH 7.4) at 0° C. and room temperature, respectively, for 24 hours, and the mixture was incubated at room temperature for 10 minutes under irradiation with LED (wavelength: 500 nm). Then, the reaction was monitored with a mass spectrometer (MALDI-TOF MS). The intensity ratio of oxygenation (%) was calculated according to (Total intensity of oxygen adducts)/((Intensity of non-oxygen adduct (native))+(Total intensity of oxygen adducts)).

[8] = Singlet oxygen production in glycerol/water (furfuryl alcohol decrease); settings: aqueous solution containing glycerol, light irradiation
Description: as §3

[9] = target: β2-microglobulin (Homo sapiens, UniProt P61769); test: Oxygenation reaction of β2-microglobulin; assay type: biochemical
Description: (§4) The reaction was monitored with a mass spectrometer (MALDI-TOF MS).

[10] = tested on: nucleoside phosphorylase; test: Oxygenation ratio of aggregated to non-aggregated nucleoside phosphorylase (Example 8); assay type: biochemical; settings: 4 μM, pH 7.4, room temperature, light 10 minutes
Experimental: (1) A phosphate buffer solution (10 mM, pH 7.4) containing nucleoside phosphorylase (0.1 mg/mL) was incubated at 60° C. The degree of thermal aggregation was monitored using a fluorescence assay kit (Protein Stability and Aggregation Assay Kit (ProFoldin, Hudson, Mo., USA)).
as §4
(§5) Each oxygenation ratio was calculated according to (Intensity ratio of oxygenation of aggregated Aβ1-42)/(Intensity ratio of oxygenation of non-aggregated Aβ1-42) and (Intensity ratio of oxygenation of aggregated nucleoside phosphorylase)/(Intensity ratio of oxygenation of non-aggregated nucleoside phosphorylase).

[11] = target: T3, amylin (Homo sapiens, UniProt P10997); test: Oxidation reaction of amylin; assay type: biochemical
T3 construct: amylin, a hormone essential for glycemic control
T3 sequence (P10997 34-70 limits assumed): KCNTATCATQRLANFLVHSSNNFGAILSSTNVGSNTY
Experimental: as §1, §2

[12] = target: α-synuclein (Homo sapiens, UniProt P37840); test: Oxygenation reaction of α-synuclein; assay type: biochemical
Description: as §4

[13] = target: T4, insulin (Homo sapiens, UniProt P01308); test: Oxygenation reaction of insulin; assay type: biochemical
T4 construct: prepared by the incubation of insulin (400 μM) in a 25 mM hydrochloric acid solution
Description: (§6) Then, the reaction was monitored with a mass spectrometer (MALDI-TOF MS).

[14] = target: T1, Aβ1-42; test: Oxygenation ratio of aggregated to non-aggregated Aβ1-42 (Example 8); assay type: biochemical; settings: 20.0 mmol %, pH 7.4, room temperature, light 10 minutes
Experimental: as §6, §5

[15] = target: somatostatin (Homo sapiens, UniProt P61278); test: Selectivity of oxygenation reaction, somatostatin (Example 4); assay type: biochemical; set-up: unit not given here; settings: compound (1a) 20 mmol %, light 1 hour, 37° C.
Description: as §1

[16] = target: transthyretin (Homo sapiens, UniProt P02766); test: Oxygenation reaction of transthyretin; assay type: biochemical
Description: as §4

[17] = Absorption spectra; assay type: physicochemical
[18] = target: T2, methionine enkephalin; test: Oxidation reaction of methionine enkephalin (Example 3); assay type: biochemical; settings: light irradiation 1.5 hours, neutral buffer, 37° C.
Description: as §1

[19] = target: aggregated Aβ1-42 (Homo sapiens, UniProt P05067); test: Increase of the intensity ratio of oxygenation of aggregated Aβ1-42 (Example 5); assay type: biochemical; settings: Aβ1-42 incubated 0, 1, 3, 6 hours; light 10 minutes, room temperature
Experimental: as §6
Increase of the intensity ratio of oxygenation (%) was calculated according to (Intensity ratio of oxygenation of aggregated Aβ1-42 (incubated at 37° C. for the predetermined time))−(Intensity ratio of oxygenation of aggregated Aβ1-42 (incubated at 37° C. for 0 hours)).
The intensity ratio of oxygenation (%) was calculated according to (Total intensity of oxygen adducts)/((Intensity of non-oxygen adduct (native))+(Total intensity of oxygen adducts)).

[20] = target: angiotensin IV (Homo sapiens, UniProt P01019); test: Oxidation reaction of angiotensin IV (Example 3); assay type: biochemical; settings: light irradiation 1.5 hours, neutral buffer, 37° C.
Description: as §1

[21] = target: T5, desacyl ghrelin (Homo sapiens, UniProt Q9UBU3); test: Selectivity of oxygenation reaction, desacyl ghrelin (Example 4); assay type: biochemical; set-up: unit not given here; settings: compound (1a) 20 mmol %, light 1 hour, 37° C.
T5 sequence (Q9UBU3 24-51 limits assumed): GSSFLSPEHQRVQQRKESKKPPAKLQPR
Description: as §1

[22] = 20 μM, light 500 nm, 37° C., 30 minutes

T1 sequence (P05067 672-713 limits assumed): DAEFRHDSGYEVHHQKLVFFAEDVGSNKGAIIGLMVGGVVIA
Chain of β2-microglobulin (P61769 21-119, species assumed): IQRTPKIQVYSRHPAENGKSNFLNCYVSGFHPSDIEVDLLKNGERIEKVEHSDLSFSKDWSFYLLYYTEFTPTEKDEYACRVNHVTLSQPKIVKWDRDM
T4 sequence (P01308 25-54 limits assumed, species assumed): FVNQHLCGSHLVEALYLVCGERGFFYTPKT
T4 sequence (P01308 90-110 limits assumed, species assumed): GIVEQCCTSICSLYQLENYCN
Chain of Aβ1-42 oligomers (P05067 672-713 limits assumed): as the sequence (P05067 672-713 limits assumed) above
Chain of Aβ coexisting with angiotensin IV and methionine enkephalin (P05067 672-713): as the sequence (P05067 672-713 limits assumed) above
Chain of aggregated Aβ1-42 (P05067 672-713 limits assumed): as above

C[n+]1c(-c2cc3c4c(c2)CCCN4CCC3)sc2cc(Br)ccc21 [1a]
fluorescence intensity in glycerol/water mixed solvent [1]: increased with increase in the concentration of highly viscous glycerol | oxidation efficiency of Aβ ([2]; 100 mmol %, light 500 nm, pH 7.4, 37° C., compared with thioflavin T): remarkably high as compared with thioflavin T | oxygenation site in Aβ1-42 ([2]; amino acid analysis and LC/MS/MS analysis): remarkably at His-13 and His-14 residues, and oxygenation also proceeds slightly at Met-35 residue | generation of an oxygenated form of methionine enkephalin [3]: ≤ 2 | fluorescence in the presence of Aβ compared with absence of Aβ [4]: remarkably high as compared with that in the absence of Aβ | oxidation of benzoyl methionine [5]: oxidized in a glycerol concentration-dependent manner | selectivity of oxygenation with coexisting substrates [6]: highly selective oxygenation of Aβ was observed | oxygenation of Aβ1-42 oligomers [7]: able to catalyze the oxygenation of both of the Aβ1-42 oligomers | production of singlet oxygen (decrease in furfuryl alcohol) [8]: production of singlet oxygen, with increase in the concentration of glycerol was observed | oxygenation of aggregated β2-microglobulin [9, 22]: observed | progression of oxygenation of non-aggregated β2-microglobulin [9, 22]: not observed | oxygenation of aggregated β2-microglobulin without light irradiation ([9]; without light irradiation): not observed | oxygenation ratio (aggregated / non-aggregated nucleoside phosphorylase) [10]: approximately 1.2 | selectivity for aggregated over monomeric amylin [11]: selectively reacts with aggregated amylin without acting on monomeric amylin | oxygenation of amylin ([11]; 100 mmol %, light 500 nm, pH 7.4, 37° C.): time-dependent oxygenation at His-18 residue was observed | oxygenation of amylin in a monomeric state ([11]; pre-incubation 0 h): Only a trace amount of an oxygenated form was detected | oxygenation of amylin aggregated in advance ([11]; pre-incubation 1 hour and 2 hours): the ratio of oxygenized amylin was elevated | oxygenation of aggregated α-synuclein [12, 22]: observed | progression of oxygenation of non-aggregated α-synuclein [12, 22]: not observed | oxygenation of aggregated α-synuclein without light irradiation ([12]; without light irradiation): not observed | progression of oxygenation of aggregated insulin [13, 22]: observed | progression of oxygenation of non-aggregated insulin [13, 22]: not observed | oxygenation of aggregated insulin without light irradiation ([13]; without light irradiation): not observed | oxygenation ratio (aggregated Aβ1-42 / non-aggregated Aβ1-42) [14]: approximately 4.2 | generation of an oxygenated form of somatostatin [15]: ≤ 2 | oxygenation of aggregated transthyretin [16, 22]: observed | progression of oxygenation of non-aggregated transthyretin [16, 22]: not observed | oxygenation of aggregated transthyretin without light irradiation ([16]; without light irradiation): not observed | maximum absorption wavelength ([17]; 20 μM, phosphate buffer pH 7.4): 456 nm | shift of maximum absorption wavelength to longer wavelength than thioflavin T ([17]; compared with thioflavin T): approximately 50 nm | oxygenation of methionine enkephalin [18]: ≤ 5% | increase of the intensity ratio of oxygenation [19]: increase of the intensity ratio of oxygenation was observed with increase in the fluorescence intensity of thioflavin T | oxygenation of angiotensin IV [20]: ≤ 5% | generation of an oxygenated form of desacyl ghrelin [21]: ≤ 2
